Experimental data published in patent publication US20260226493A1, “HERBICIDE RESISTANT PLANTS” (SYNGENTA CROP PROTECTION AG, priority 2023, published 2026).

Columns and labels:
Assay type in all cases: biochemical
Bacillus subtilis BioA = experiment: BioA enzyme activity with DMSO or herbicide in vitro; settings: spermidine in substrate mix
From the text: (§1) A pet-24 plasmid containing a DNA sequence encoding each identified variant mutant of BIO3-BIO1 derived from Arabidopsis thaliana from example 5 above, as shown in Table 13 below and as shown in full in SEQ ID NOs: 15 to 155, codon-optimised for expression in E. coli, with an N-terminal 6×His-tag and thrombin cleavage site and under control of a T7 promoter, and was synthesised by Twist Bioscience, in a similar manner to SEQ ID NO:311. These plasmids were then expressed in E. coli BL21 (DE3) bioA with 50 μg/mL kanamycin and 25 μg/mL chloramphenicol selection. Overnight cultures grown at 37° C. were used to inoculate 8×500 mL AIM in shake flasks at a ratio of 1:100. Cultures were grown at 37° C., 200 rpm for 3.5 hours and then overnight at 20° C. Cells were harvested by centrifugation for 30 minutes at 10 000 g. Cells were stored at −80° C. until extraction. 30 g of cell pellet from was thawed in 120 mL of IMAC buffer A (20 mM HEPES pH7.5, 25 mM imidazole, 500 mM sodium chloride, 0.15 mM pyridoxal phosphate, 0.5 mM TCEP, 1× complete Protease Inhibitor Tablet (Roche)). The resuspension was passed through a cell disrupter at 18 000 PSI and centrifuged at 50 000 g for 25 minutes at 4° C. The His-tagged BIO3-BIO1 protein was purified from the extract supernatant on an AKTA avant chromatography system (Cytiva) using a HisTrap FF column and eluted in IMAC buffer B ((20 mM HEPES pH7.5, 500 mM imidazole, 500 mM sodium chloride, 0.15 mM pyridoxal phosphate, 0.5 mM TCEP) followed by SEC using a HiLoad 26/60 Superdex200 column in SEC buffer (25 mM HEPES pH7.5, 150 mM sodium chloride, 0.15 mM pyridoxal phosphate, 0.5 mM TCEP). Protein concentration was measured and calculated using the absorbance at 280 nm. Extracts were diluted 1 in 4 and 10 uL was analysed by SDS PAGE.
(§2) To measure BIO3-BIO1 mutant enzyme activity in the presence of herbicide, herbicides were incubated with 20 μL of enzyme mix (100 mM EPPS pH 8.6, 0.1 mM pyridoxal phosphate, 0.1 mg/mL BSA, 50 nM BIO3-BIO1 enzyme) for 10 minutes at 20° C. in a well of a 96-well half-area black plate, followed by the addition of 20 μL of substrate mix (final concentration of 100 mM EPPS pH 8.6, 0.1 mM pyridoxal phosphate, 0.1 mg/mL BSA, 100 μM spermidine, 20 μM KAPA, 100 mM NaCO3) and further incubation for 75 minutes at 20° C. The reaction was terminated by the addition of 50 μL of derivatisation mix (final concentration of 250 mM borate NaOH pH 9.4, 3.6 mM o-phthalaldehyde, 7 mM β-mercaptoethanol, 17% (v/v) ethanol, 3.6% (v/v) methanol). The fluorescent product produced by the reaction of DAPA with o-phthalaldehyde and 7 mM β-mercaptoethanol was measured at 470 nm after excitation at 410 nm. The percentage inhibition was calculated as the activity in the presence of one of three concentrations of each herbicide compound A to M (note that the compounds labelled as A to M are identified hereinabove in the relevant section of the description) as a percentage of the activity in DMSO (Table 12 and 13). The percentage activity versus WT was also calculated and is shown in Table 13 and 14 (NT indicates mutation not tested in table 13, note that these mutations are tested at different compound concentrations for compounds L, M and C, and the results are shown in table 14).
(§3) Protein of Escherichia coli BioA (SEQ ID NO:159), Pantoea ananatis BioA (SEQ ID NO:167), Streptomyces viridochromogenes BioA (SEQ ID NO:170), Cryptosporidium andersoni BioA (SEQ ID NO:160), Stenotrophomonas maltophilia BioA (SEQ ID NO:171), Chroococcidiopsis BioA (SEQ ID NO:184), Pedobacter hartonius BioA (SEQ ID NO:181), Chitinophaga filiformis BioA (SEQ ID NO:180), Tenacibaculum adriaticum BioA (SEQ ID NO:185) and Bacillus subtilis BioA (SEQ ID NO:166) was prepared using the method in Example 6. BioA enzyme activity in the presence of herbicide or DMSO in vitro for each of the proteins was assayed according to the enzyme assay method in Example 6, except in some reactions spermidine was replaced with 2 mM S-Adenosyl methionine.

[1] = test system: Chitinophaga filiformis BioA; experiment: as above; settings: spermidine in substrate mix
From the text: as §1, §2, §3

Arabidopsis BioDAΔMTP = biological target: T1, Arabidopsis BioDAΔMTP (Arabidopsis thaliana, UniProt B0F481); experiment: BioDA enzyme activity with DMSO or herbicide in vitro (wild-type reference enzyme); settings: for % Inhibition relative to DMSO treatment: Arabidopsis BioDAΔMTP (Table 26)
T1 construct: with the predicted N-terminal mitochondrial transit peptide removed; 6xHis-tag (N); thrombin cleavage site (N); made in house; host or cells: E. coli BL21 (DE3) bioA
T1 sequence (B0F481 with tags, fused parts or gaps): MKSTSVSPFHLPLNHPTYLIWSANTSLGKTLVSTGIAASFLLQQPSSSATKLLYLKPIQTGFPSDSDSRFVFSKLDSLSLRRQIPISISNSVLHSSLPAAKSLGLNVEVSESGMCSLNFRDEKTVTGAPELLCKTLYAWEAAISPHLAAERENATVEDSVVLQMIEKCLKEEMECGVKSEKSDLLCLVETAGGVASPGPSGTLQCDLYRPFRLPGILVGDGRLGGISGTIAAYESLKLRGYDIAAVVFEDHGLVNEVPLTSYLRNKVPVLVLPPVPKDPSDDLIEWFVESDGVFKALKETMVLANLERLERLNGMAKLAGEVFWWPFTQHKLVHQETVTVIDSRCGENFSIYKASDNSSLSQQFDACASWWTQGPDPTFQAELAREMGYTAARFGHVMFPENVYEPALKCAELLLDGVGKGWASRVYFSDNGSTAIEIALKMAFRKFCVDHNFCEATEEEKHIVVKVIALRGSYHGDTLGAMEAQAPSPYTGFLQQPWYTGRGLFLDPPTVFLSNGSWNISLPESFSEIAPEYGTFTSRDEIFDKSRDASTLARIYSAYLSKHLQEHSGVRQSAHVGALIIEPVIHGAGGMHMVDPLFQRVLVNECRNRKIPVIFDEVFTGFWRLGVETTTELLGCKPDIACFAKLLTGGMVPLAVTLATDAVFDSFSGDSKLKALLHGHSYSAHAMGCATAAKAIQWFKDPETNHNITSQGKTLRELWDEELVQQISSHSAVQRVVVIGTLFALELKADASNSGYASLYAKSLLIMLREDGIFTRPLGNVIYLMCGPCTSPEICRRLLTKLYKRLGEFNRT

[2] = 31 μM, Arabidopsis (SEQ ID NO 294), spermidine in substrate mix, read-out: % Inhibition relative to DMSO treatment
[3] = Arabidopsis (SEQ ID NO 294), spermidine in substrate mix, read-out: % Inhibition relative to DMSO treatment
[4] = 500 μM, Arabidopsis (SEQ ID NO 294), spermidine in substrate mix, read-out: % Inhibition relative to DMSO treatment

With CCOC(=O)c1nn(-c2ccc3c(c2)OC(F)(F)C(F)(F)O3)c2cccc(C(C)=O)c2c1=O [Compound A, ethyl 5-acetyl-4-oxo-1-(2,2,3,3-tetrafluoro-1,4-benzodioxin-6-yl)cinnoline-3-carboxylate] the “% Inhibition relative to DMSO treatment” value (Bacillus subtilis BioA; 25 μM) was 0%, the “% Inhibition relative to DMSO treatment” value ([1]; 25 μM) was 0% and the inhibition at 25 µM (Arabidopsis BioDAΔMTP; 25 μM, Arabidopsis (SEQ ID NO 294), spermidine in substrate mix, read-out: % Inhibition relative to DMSO treatment) was 96%.

CC(O)C(N)CCCCC(=O)O.Cl (stereo not drawn) [Compound B, [5-carboxy-1-(1-hydroxyethyl)pentyl]ammonium chloride] was tested, and the “% Inhibition relative to DMSO treatment” value (Bacillus subtilis BioA; 200 μM) was 0%, the “% Inhibition relative to DMSO treatment” value ([1]; 200 μM) was 12% and the inhibition at 31 µM (Arabidopsis BioDAΔMTP; [2]) was 79%. For the same molecule, the inhibition at 200 µM (Arabidopsis BioDAΔMTP; [3]) was 96% and the inhibition at 500 µM (Arabidopsis BioDAΔMTP; [4]) was 96%.

With CCn1c(C)c(-c2ccc(F)cc2F)c(=O)c(C(=O)O)c1-c1ccc(Cl)c(Cl)c1 [Compound C, 2-(3,4-dichlorophenyl)-5-(2,4-difluorophenyl)-1-ethyl-6-methyl-4-oxo-pyridine-3-carboxylic acid] the “% Inhibition relative to DMSO treatment” value (Bacillus subtilis BioA; 0.5 μM) was 0%, the “% Inhibition relative to DMSO treatment” value ([1]; 0.5 μM) was 12% and the inhibition at 0.5 µM (Arabidopsis BioDAΔMTP; [3]) was 53%.

For CCn1c(C)c(-c2cc(OC(F)(F)F)ccc2Cl)c(=O)c(C(=O)O)c1-c1ccc(Cl)c(Cl)c1 [Compound D, 5-[2-chloro-5-(trifluoromethoxy)phenyl]-2-(3,4-dichlorophenyl)-1-ethyl-6-methyl-4-oxo-pyridine-3-carboxylic acid], the “% Inhibition relative to DMSO treatment” value (Bacillus subtilis BioA; 0.5 μM) was 0%, the “% Inhibition relative to DMSO treatment” value ([1]; 0.5 μM) was 0% and the inhibition at 0.5 µM (Arabidopsis BioDAΔMTP; [3]) was 95%.

C[C@@H](N)COc1cccc(C(=O)O)n1.Cl.Cl [Compound E, [(1R)-2-(6-carboxypyridin-1-ium-2-yl)oxy-1-methyl-ethyl]ammonium dichloride] was tested, and the “% Inhibition relative to DMSO treatment” value (Bacillus subtilis BioA; 200 μM) was 0%, the “% Inhibition relative to DMSO treatment” value ([1]; 200 μM) was 28% and the inhibition at 200 µM (Arabidopsis BioDAΔMTP; [3]) was 96%.

In the case of CCn1c(Cn2ccc(C(F)(F)F)n2)cc(=O)c(C(=O)O)c1-c1ccc(Cl)c(Cl)c1 [Compound L, 2-(3,4-dichlorophenyl)-1-ethyl-4-oxo-6-[[3-(trifluoromethyl)pyrazol-1-yl]methyl]pyridine-3-carboxylic acid], the “% Inhibition relative to DMSO treatment” value (Bacillus subtilis BioA; 0.5 μM) is reported as 0%, the “% Inhibition relative to DMSO treatment” value ([1]; 0.5 μM) is reported as 11% and the inhibition at 0.5 µM (Arabidopsis BioDAΔMTP; [3]) is reported as 83%. For the same molecule, the inhibition at 31 µM (Arabidopsis BioDAΔMTP; [2]) was 99%, the “% Inhibition relative to DMSO treatment” value (Arabidopsis BioDAΔMTP; 31 μM) was 99% and the inhibition at 500 µM (Arabidopsis BioDAΔMTP; [4]) was 98%. For the same molecule, the “% Inhibition relative to DMSO treatment” value (Arabidopsis BioDAΔMTP; 500 μM) was 98%.

With CCn1c(-c2ccc(Cl)c(Cl)c2)c(C(=O)O)c(=O)c2cc(F)ccc21 [Compound M, 2-(3,4-dichlorophenyl)-1-ethyl-6-fluoro-4-oxo-quinoline-3-carboxylic acid] the “% Inhibition relative to DMSO treatment” value (Bacillus subtilis BioA; 0.5 μM) was 4%, the “% Inhibition relative to DMSO treatment” value ([1]; 0.5 μM) was 0% and the inhibition at 0.5 µM (Arabidopsis BioDAΔMTP; [3]) was 45%.
